Data from EP4670722A1, “PROPHYLACTIC OR AMELIORATING AGENT FOR CELL AGING” (Kyowa Pharma Chemical Co., Ltd., priority 2023, dated 2024).

Assays:
GLS1 [1] = experiment: GLS1 expression analysis (ELISA) in KKLS; assay type: cell-based; settings: human gastric undifferentiated carcinoma cells (KKLS), at least 200 µg/mL or more, 24 hours; effect increased from 200 to 1000 µg/mL; Fig. 12
Protocol: Human gastric undifferentiated carcinoma cells (KKLS) were cultured in RPMI 1640 (manufactured by Nissui Pharmaceutical Co., Ltd.) containing 10% FBS. The cultured cells were collected by trypsin treatment. The collected cells were seeded in a 6-well plate, and when they reached 100% confluence, RPMI 1640 containing the test sample (2'-FL and lactose) at 50 µg/mL, 200 µg/mL, or 1000 µg/mL was added, and cultured for 24 hours in a 37°C, 5% CO2 incubator. The culture supernatant was removed, the cells were washed twice with PBS, and 0.20 mL of RIPA buffer was added to extract total protein. Protein in each protein extract was quantified by the Bradford assay.
Protein extracts were collected in the same manner as in [Example 10-1 B. Human gastric undifferentiated carcinoma cells (KKLS)], [Example 10-1 C. Mouse microglial cells (BV2)], [Example 10-1 D. Human gingival fibroblasts (Gin-1)], and [Example 10-1 E. Human umbilical vein endothelial cells (HUVEC)], respectively, except that a medium same as the above-mentioned medium but not containing the test sample was used instead of the medium containing the test sample, and protein in each protein extract was quantified by the Bradford assay.
An ELISA method was performed using an antibody against GLS1 to measure the amount of GLS1 in the samples. […]

[2] = tested on: Human normal epidermal keratinocytes (HaCaT); experiment: Cell proliferation rate (MTT) of normal epidermal keratinocytes; assay type: cell-based; settings: 50 µg/mL to 200 µg/mL in medium, 2 days, activity increased as content increased, Fig. 1
Protocol: Human normal epidermal keratinocytes (HaCaT) were cultured using DMEM containing 10% FBS. The cultured cells were collected by trypsin treatment. The collected cells were seeded in a 96-well microplate at a concentration of 5.0 x 10^3 cells/well and cultured overnight. Thereafter, the cells were cultured for 2 days at 37°C in a medium for epidermal keratinocyte proliferation (FBS-free) to which a test sample (sucrose or 2'-fucosyllactose) was added to a concentration of 50 µg/mL, 100 µg/mL, or 200 µg/mL. The medium was replaced with FBS-free DMEM medium, then 10 µL/well of 5 mg/mL 3-[4,5-dimethylthiazol-2-yl]-2,5-diphenyltetrazolium bromide (MTT) was added, and the cells were cultured at 37°C for 3 hours. After completion of culture, formazan produced in the cells was extracted with 100 µL of dimethyl sulfoxide (DMSO). After extraction, the absorbance of formazan (As, 492 nm) was measured with a microplate reader. The reference wavelength was set to 620 nm.
Human normal epidermal keratinocytes were cultured and the absorbance of formazan was measured in the same manner as in Example 1-1, except that no test sample was added. The obtained absorbance was designated as Ab, and the cell proliferation rate represented by the following formula (1) was determined. Cell proliferation rate(%) = 100 x As/AB [formula]

GLS1 [3] = experiment: GLS1 expression analysis (Western blot) in dermal fibroblasts cultured with medium of hydrogen peroxide-treated cells; assay type: cell-based, Human; settings: dermal fibroblasts NB1RGB, 50 µg/mL to 200 µg/mL, 24 hours, protein level vs β-actin; effect increased as content increased; Fig. 4
Protocol: Human normal dermal fibroblasts (NB1RGB, PDL of 30 or less) were cultured using DMEM containing 10% FBS. The cultured cells were collected by trypsin treatment. The collected cell-containing liquid was diluted with DMEM containing 10% FBS to a cell concentration of 5.0 x 10^5 cells, seeded in a 10 cm dish, and cultured until 60% confluent. Thereafter, the cultured cells were subjected to a treatment of exposure to a medium containing 50 µM hydrogen peroxide (FBS-free) for 2 hours once a day for 3 days. Then, the medium was replaced with DMEM containing 5% FBS, and after 2 days, the medium (medium A) was collected. Dermal fibroblasts not exposed to hydrogen peroxide were diluted with DMEM containing 10% FBS to a concentration of 5.0 x 10^5 cells, seeded in a 10 cm dish, and cultured for 24 hours. […]
The dermal fibroblasts prepared in [Example 3-1] were diluted with DMEM medium containing 10% FBS to a concentration of 8.0 x 10^4 cells, seeded in a 6-well plate, and cultured until 80% confluent. […] The extracted proteins were quantified by the Bradford assay.
Except that no test sample was added, skin fibroblasts prepared in [Example 3-1] and skin fibroblasts cultured using DMEM containing 10% FBS were cultured in the same manner as in [Example 3-2], and proteins were extracted. The extracted proteins were quantified by the Bradford assay. […]

C[C@@H]1O[C@@H](O[C@H]2[C@H](O[C@H]3[C@H](O)[C@@H](O)C(O)O[C@@H]3CO)O[C@H](CO)[C@H](O)[C@@H]2O)[C@@H](O)[C@H](O)[C@@H]1O (stereo partly drawn) [2'-FL, 2'-fucosyllactose] was tested, and the GLS1 expression (GLS1 [1]) was “suppressed GLS1 expression”, the “proliferation activity of normal epidermal cells (cell proliferation rate)” value [2] was “improved the proliferation activity of normal epidermal cells” and the “expression of GLS1” value (GLS1 [3]) was “suppressed the expression of GLS1”.
